According to patent US7138361B2, “Herbicidal heterocycles” (E. I. du Pont de Nemours and Company, priority 2000, dated 2006):

Tests used:
Format in all cases: in vivo
[1] = tested on: Surinam grass (Brachiaria decumbens); assay: Test B postemergence; details: 13 to 15 days
How it was run: (§1)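 Post-treatment, species sat 13–15 days under greenhouse conditions before visual scoring against controls, 0 (no effect) through 100 (complete control). Application preemergence to sown seeds or postemergence at 1- to 4-leaf stage, using a non-phytotoxic solvent/surfactant formulation.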

[2] = tested on: barnyardgrass (Echinochloa crus-galli); assay: Test B postemergence; details: 13 to 15 days
How it was run: as §1

[3] = tested on: blackgrass (Alopecurus myosuroides); assay: Test B postemergence; details: 13 to 15 days
How it was run: as §1

[4] = tested on: cocklebur (Xanthium strumarium); assay: Test B postemergence; details: 13 to 15 days
How it was run: as §1

corn (Zea mays) [5] = assay: Test B postemergence; details: 13 to 15 days
How it was run: as §1

[6] = tested on: crabgrass (Digitaria sanguinalis); assay: Test B postemergence; details: 13 to 15 days
How it was run: as §1

[7] = tested on: giant foxtail (Setaria faberii); assay: Test B postemergence; details: 13 to 15 days
How it was run: as §1

[8] = tested on: lambsquarters (Chenopodium album); assay: Test B postemergence; details: 13 to 15 days
How it was run: as §1

[9] = tested on: morning glory (Ipomoea hederacea); assay: Test B postemergence; details: 13 to 15 days
How it was run: as §1

[10] = tested on: pigweed (Amaranthus retroflexus); assay: Test B postemergence; details: 13 to 15 days
How it was run: as §1

[11] = tested on: velvetleaf (Abutilon theophrasti); assay: Test B postemergence; details: 13 to 15 days
How it was run: as §1

[12] = tested on: wheat (Triticum aestivum); assay: Test B postemergence; details: 13 to 15 days
How it was run: as §1

wild oat (Avena fatua) = assay: Test B postemergence; details: 13 to 15 days
How it was run: as §1

[13] = tested on: Surinam grass (Brachiaria decumbens); assay: Test B preemergence
How it was run: as §1

[14] = tested on: barnyardgrass (Echinochloa crus-galli); assay: Test B preemergence
How it was run: as §1

[15] = tested on: cocklebur (Xanthium strumarium); assay: Test B preemergence
How it was run: as §1

corn (Zea mays) [16] = assay: Test B preemergence
How it was run: as §1

[17] = tested on: crabgrass (Digitaria sanguinalis); assay: Test B preemergence
How it was run: as §1

[18] = tested on: giant foxtail (Setaria faberii); assay: Test B preemergence
How it was run: as §1

[19] = tested on: lambsquarters (Chenopodium album); assay: Test B preemergence
How it was run: as §1

[20] = tested on: morning glory (Ipomoea hederacea); assay: Test B preemergence
How it was run: as §1

[21] = tested on: pigweed (Amaranthus retroflexus); assay: Test B preemergence
How it was run: as §1

rice (Oryza saliva) [22] = assay: Test B preemergence
How it was run: as §1

[23] = tested on: velvetleaf (Abutilon theophrasti); assay: Test B preemergence
How it was run: as §1

[24] = tested on: barnyardgrass (Echinochloa crus-galli); assay: Test C flooded paddy test; details: for Barnyardgrass plant response rating: Flooded Paddy, scale 0 to 100, 0 no effect, 100 complete control; for Plant response rating, Barnyardgrass: flooded paddy test, scale 0 to 100 (0 no effect, 100 complete control)
How it was run: (§2)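 Rice and three paddy weeds were grown to the 2-leaf stage under flooded conditions, then treated and kept in a greenhouse for 12–14 days. Response was rated visually against untreated controls on a 0–100 scale, where 100 is complete control.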

[25] = tested on: duck salad (Heteranthera limosa); assay: Test C flooded paddy test; details: for Ducksalad plant response rating: Flooded Paddy, scale 0 to 100, 0 no effect, 100 complete control; for Plant response rating, Ducksalad: flooded paddy test, scale 0 to 100 (0 no effect, 100 complete control)
How it was run: as §2

rice (Oryza saliva) [26] = assay: Test C flooded paddy test; details: for Rice plant response rating: Flooded Paddy, scale 0 to 100, 0 no effect, 100 complete control; for Plant response rating, Rice: flooded paddy test, scale 0 to 100 (0 no effect, 100 complete control)
How it was run: as §2

[27] = tested on: smallflower flatsedge (Cyperus difformis); assay: Test C flooded paddy test; details: for Flatsedge plant response rating: Flooded Paddy, scale 0 to 100, 0 no effect, 100 complete control; for Plant response rating, Flatsedge: flooded paddy test, scale 0 to 100 (0 no effect, 100 complete control)
How it was run: as §2

[28] = Rate 125 g/ha, scale 0 (no effect) to 100 (complete control)
[29] = Rate 500 g/ha, scale 0 to 100, 0 is no effect, 100 is complete control
[30] = Preemergence, Rate 500 g/ha, scale 0 to 100, 0 no effect, 100 complete control
[31] = preemergence, Rate 125 g/ha, scale of 0 to 100 where 0 is no effect and 100 is complete control, 13 to 15 days

SMILES: Cc1c(Cl)cc(N2CCC(n3ccc(C(C)(C)C)n3)C2=O)cc1Cl (stereo not shown) [Compound 74]
- Plant response rating, Surinam grass [1, 28]: 0
- Plant response rating, Surinam grass [1, 29]: 0
- Plant response rating, Barnyardgrass [2, 28]: 0
- Plant response rating, Barnyardgrass [2, 29]: 0
- Plant response rating, Blackgrass [3, 28]: 0
- Plant response rating, Blackgrass [3, 29]: 0
- Plant response rating, Cocklebur [4, 28]: 0
- Plant response rating, Cocklebur [4, 29]: 0
- Plant response rating, Corn (corn (Zea mays) [5]; [28]): 0
- Plant response rating, Corn (corn (Zea mays) [5]; [29]): 0
- Plant response rating, Crabgrass [6, 28]: 0
- Plant response rating, Crabgrass [6, 29]: 0
- Plant response rating, Foxtail, Giant [7, 28]: 0
- Plant response rating, Foxtail, Giant [7, 29]: 0
- Plant response rating, Lambsquarters [8, 28]: 0
- Plant response rating, Lambsquarters [8, 29]: 0
- Plant response rating, Morningglory [9, 28]: 0
- Plant response rating, Morningglory [9, 29]: 0
- Plant response rating, Pigweed [10, 28]: 80
- Plant response rating, Pigweed [10, 29]: 90
- Plant response rating, Velvetleaf [11, 28]: 0
- Plant response rating, Velvetleaf [11, 29]: 0
- Plant response rating, Wheat [12, 28]: 0
- Plant response rating, Wheat [12, 29]: 0
- Plant response rating, Wild Oat (wild oat (Avena fatua); [28]): 0
- Plant response rating, Wild Oat (wild oat (Avena fatua); [29]): 0
- Plant response rating, Surinam grass [13, 30]: 20
- Plant response rating, Surinam grass [13, 31]: 0
- Plant response rating, Barnyardgrass [14, 30]: 90
- Plant response rating, Barnyardgrass [14, 31]: 30
- Plant response rating, Cocklebur [15, 30]: 0
- Plant response rating, Cocklebur [15, 31]: 0
- Plant response rating, Corn (corn (Zea mays) [16]; [30]): 0
- Plant response rating, Corn (corn (Zea mays) [16]; [31]): 0
- Plant response rating, Crabgrass [17, 30]: 70
- Plant response rating, Crabgrass [17, 31]: 20
- Plant response rating, Foxtail, Giant [18, 30]: 60
- Plant response rating, Foxtail, Giant [18, 31]: 0
- Plant response rating, Lambsquarters [19, 30]: 100
- Plant response rating, Lambsquarters [19, 31]: 100
- Plant response rating, Morningglory [20, 30]: 0
- Plant response rating, Morningglory [20, 31]: 0
- Plant response rating, Pigweed [21, 30]: 90
- Plant response rating, Pigweed [21, 31]: 80
- Plant response rating, Rice (rice (Oryza saliva) [22]; [30]): 0
- Plant response rating, Rice (rice (Oryza saliva) [22]; [31]): 0
- Plant response rating, Velvetleaf [23, 30]: 0
- Plant response rating, Velvetleaf [23, 31]: 0
- Barnyardgrass plant response rating ([24]; Rate 250 g/ha): 0
- Barnyardgrass plant response rating ([24]; Rate 500 g/ha): 0
- Plant response rating, Barnyardgrass ([24]; Rate 62 g/ha): 0
- Plant response rating, Barnyardgrass ([24]; Rate 125 g/ha): 0
- Ducksalad plant response rating ([25]; Rate 250 g/ha): 0
- Ducksalad plant response rating ([25]; Rate 500 g/ha): 0
- Plant response rating, Ducksalad ([25]; Rate 62 g/ha): 0
- Plant response rating, Ducksalad ([25]; Rate 125 g/ha): 0
- Rice plant response rating (rice (Oryza saliva) [26]; Rate 250 g/ha): 0
- Rice plant response rating (rice (Oryza saliva) [26]; Rate 500 g/ha): 0
- Plant response rating, Rice (rice (Oryza saliva) [26]; Rate 62 g/ha): 0
- Plant response rating, Rice (rice (Oryza saliva) [26]; Rate 125 g/ha): 0
- Flatsedge plant response rating ([27]; Rate 250 g/ha): 0
- Flatsedge plant response rating ([27]; Rate 500 g/ha): 40
- Plant response rating, Flatsedge ([27]; Rate 62 g/ha): 0
- Plant response rating, Flatsedge ([27]; Rate 125 g/ha): 0
